Assay [1] has as its system Ba/F3 EGFR del19 cell line. Briefly: CellTiter-Glo cell viability, Ba/F3 EGFR del19. The class given is cell-based. The note with it: 72 hours. Here is the method:
(§1) The measurement of an activity on wild-type and mutation Ba/F3 EGFR cell line of the compound of the present invention was experimented by utilizing the CellTiter-Glo system sold by Promega, as follow. The CellTiter-Glo assay is a method for measuring the ATP present in cells in cell culture conditions to determine the cell viability.
(§2) The analysis of an EGFR inhibitory ability effect of the compound was carried out in accordance with the analysis reaction recipe below.
(§3) After the reaction of 72 hours, the plate treated with the compound was allowed to stand for 30 minutes at ambient temperature, and then, was further treated with 100 μl of the reagent, and was shaked for 10 minutes at ambient temperature. […] The measurement values measured at the eight concentrations of the compound were analyzed by using the Prism program (version 5.01, Graphpad Software, Inc.), and IC50 value of the compound was calculated, which is an inhibitory ability indicator.
For orientation: Cellular ATP, detected with luciferase, serves as a proxy for viable cell number.

For the next assay, the target named is EGFR del19/T790M (Homo sapiens (Human), UniProt P00533, DEL746-750/T790M). Briefly: HTRF enzyme assay, EGFR del19/T790M. The class given is biochemical. Particulars: recombinant enzyme. Here is the method:
(§4) The measurement of an activity on wild-type and EGFR mutation enzyme of the compound of the present invention was experimented by utilizing the HTRF system sold by Cisbio, as follow.
(§5) The composition of the assay buffer used in the activity measurement was 50 mM Tris-HCl pH 7.5, 100 mM NaCl, 7.5 mM MgCl2, 3 mM KCl, 0.01% Tween 20, 0.1% BSA, 1 mM DTT. The enzymatic reaction was carried out hereto by using the peptide substrate labeled with ATP of […] concentration and biotin of […] concentration. The analysis of an EGFR activity inhibitory effect of the compound was carried out in accordance with the analysis reaction recipe below.
(§6) Component 1: […] of EGFR wild-type or mutation enzyme
(§7) Component 2: […] of compound solution
(§8) Component 3: […] of peptide labeled with ATP and biotin
(§9) The enzymatic reaction was initiated by mixing Component 1 and Component 2 first, and then, adding component 3. After the reaction for 2 hours at 37° C., […] of a measurement solution consisting of streptavidin-XL665 provided by Cisbio and anti-phosphotyrosine antibody labeled with europium was added to the enzymatic reaction solution and reacted for 1 hour at ambient temperature. […] The measurement values measured at the seven concentrations of the compound were analyzed by using the Prism program (version 5.01, Graphpad Software, Inc.), and IC50 value of the compound was calculated, which is an inhibitory ability indicator.
(Time-resolved FRET reads energy transfer from a long-lived donor to a nearby acceptor.)

For assay [2], the system named is Ba/F3 EGFR del19/T790M cell line. As to the kind of experiment: CellTiter-Glo cell viability, Ba/F3 EGFR del19/T790M. The class given is cell-based. The note with it: read-out: Ba/F3 EGFR del19/T790M IC50. Here is the method: as §1, §2
(§10) After the reaction of 72 hours, the plate treated with the compound was allowed to stand for 30 minutes at ambient temperature, and then, was further treated with 100 μl of the reagent, and was shaked for 10 minutes at ambient temperature.

The next assay addresses EGFR del19/T790M/C797S (Homo sapiens, UniProt P00533, C797S/DEL746-750/T790M). As to the kind of experiment: HTRF enzyme assay, EGFR del19/T790M/C797S. The assay is classed as biochemical. Here is the method: as §4, §5, §6, §7, §8, §9
For another assay, the target named is EGFR del19 (Homo sapiens (Human), UniProt P00533, DEL746-750). As to the kind of experiment: HTRF enzyme assay, EGFR del19. The note with it: recombinant enzyme. The class given is biochemical. As to the method: as §4, §5, §6, §7, §8, §9
EGFR del19, sequence (P00533 other isoform, or with tags, fused parts or gaps del 1-668/del 746-750 limits assumed): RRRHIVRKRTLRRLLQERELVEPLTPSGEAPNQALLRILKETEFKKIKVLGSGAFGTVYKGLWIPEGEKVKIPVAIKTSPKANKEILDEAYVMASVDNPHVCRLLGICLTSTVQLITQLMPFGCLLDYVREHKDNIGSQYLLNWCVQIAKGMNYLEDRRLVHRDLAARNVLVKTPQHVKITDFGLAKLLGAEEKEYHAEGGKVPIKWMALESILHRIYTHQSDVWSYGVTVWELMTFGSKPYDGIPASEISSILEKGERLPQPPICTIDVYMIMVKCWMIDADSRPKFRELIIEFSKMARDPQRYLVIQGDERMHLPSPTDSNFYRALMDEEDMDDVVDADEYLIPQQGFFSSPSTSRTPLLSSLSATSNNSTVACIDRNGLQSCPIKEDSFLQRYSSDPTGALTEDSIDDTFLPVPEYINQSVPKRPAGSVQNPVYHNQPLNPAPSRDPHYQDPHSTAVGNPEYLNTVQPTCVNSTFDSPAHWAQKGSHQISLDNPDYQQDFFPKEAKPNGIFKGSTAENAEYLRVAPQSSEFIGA
The next assay addresses EGFR wt. (Homo sapiens (Human), UniProt P00533). As to the kind of experiment: HTRF enzyme assay, wild-type EGFR. The class given is biochemical. The note with it: recombinant enzyme. Here is the method:
as §4, §5, §6, §7, §8, §9

Assay [3] concerns Ba/F3 EGFR del19/T790M/C797S cell line. As to the kind of experiment: CellTiter-Glo cell viability, Ba/F3 EGFR del19/T790M/C797S. The class given is cell-based. Particulars: read-out: Ba/F3 EGFR del19/T790M/C797S IC50. As to the method: as §1, §2, §10
A further assay concerns Ba/F3 EGFR wt. cell line. As to the kind of experiment: CellTiter-Glo cell viability, Ba/F3 EGFR wild-type. Particulars: 72 hours. The class given is cell-based. As to the method: as §1, §2, §3
The mark [4] stands for this setting: HTRF, recombinant enzyme, read-out: EGFR del19/T790M/C797S IC50.

pIC50: −log10 of the molar value. Read-outs that look alike come from different tables or passages of the source. A value given as a limit tells only on which side of the number the result lay.

EGFR del19/T790M, sequence (P00533 other isoform, or with tags, fused parts or gaps T790M/del 1-668/del 746-750 limits assumed): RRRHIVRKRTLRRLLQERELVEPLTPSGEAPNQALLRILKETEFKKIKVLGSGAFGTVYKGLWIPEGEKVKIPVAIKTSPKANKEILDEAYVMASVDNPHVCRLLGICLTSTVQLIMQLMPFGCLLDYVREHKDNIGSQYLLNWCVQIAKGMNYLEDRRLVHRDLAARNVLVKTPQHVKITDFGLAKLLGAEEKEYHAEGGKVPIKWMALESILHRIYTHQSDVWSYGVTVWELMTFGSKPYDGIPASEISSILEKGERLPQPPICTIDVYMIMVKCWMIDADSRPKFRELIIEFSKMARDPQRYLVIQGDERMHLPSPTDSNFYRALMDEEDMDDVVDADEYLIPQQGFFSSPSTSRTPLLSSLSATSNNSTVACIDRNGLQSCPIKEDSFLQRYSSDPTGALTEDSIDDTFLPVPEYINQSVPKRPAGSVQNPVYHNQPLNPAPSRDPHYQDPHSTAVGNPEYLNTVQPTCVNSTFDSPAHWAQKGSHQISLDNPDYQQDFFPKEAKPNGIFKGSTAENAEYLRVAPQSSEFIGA
EGFR del19/T790M/C797S, sequence (P00533 with tags, fused parts or gaps C797S/DEL746-750/T790M limits assumed): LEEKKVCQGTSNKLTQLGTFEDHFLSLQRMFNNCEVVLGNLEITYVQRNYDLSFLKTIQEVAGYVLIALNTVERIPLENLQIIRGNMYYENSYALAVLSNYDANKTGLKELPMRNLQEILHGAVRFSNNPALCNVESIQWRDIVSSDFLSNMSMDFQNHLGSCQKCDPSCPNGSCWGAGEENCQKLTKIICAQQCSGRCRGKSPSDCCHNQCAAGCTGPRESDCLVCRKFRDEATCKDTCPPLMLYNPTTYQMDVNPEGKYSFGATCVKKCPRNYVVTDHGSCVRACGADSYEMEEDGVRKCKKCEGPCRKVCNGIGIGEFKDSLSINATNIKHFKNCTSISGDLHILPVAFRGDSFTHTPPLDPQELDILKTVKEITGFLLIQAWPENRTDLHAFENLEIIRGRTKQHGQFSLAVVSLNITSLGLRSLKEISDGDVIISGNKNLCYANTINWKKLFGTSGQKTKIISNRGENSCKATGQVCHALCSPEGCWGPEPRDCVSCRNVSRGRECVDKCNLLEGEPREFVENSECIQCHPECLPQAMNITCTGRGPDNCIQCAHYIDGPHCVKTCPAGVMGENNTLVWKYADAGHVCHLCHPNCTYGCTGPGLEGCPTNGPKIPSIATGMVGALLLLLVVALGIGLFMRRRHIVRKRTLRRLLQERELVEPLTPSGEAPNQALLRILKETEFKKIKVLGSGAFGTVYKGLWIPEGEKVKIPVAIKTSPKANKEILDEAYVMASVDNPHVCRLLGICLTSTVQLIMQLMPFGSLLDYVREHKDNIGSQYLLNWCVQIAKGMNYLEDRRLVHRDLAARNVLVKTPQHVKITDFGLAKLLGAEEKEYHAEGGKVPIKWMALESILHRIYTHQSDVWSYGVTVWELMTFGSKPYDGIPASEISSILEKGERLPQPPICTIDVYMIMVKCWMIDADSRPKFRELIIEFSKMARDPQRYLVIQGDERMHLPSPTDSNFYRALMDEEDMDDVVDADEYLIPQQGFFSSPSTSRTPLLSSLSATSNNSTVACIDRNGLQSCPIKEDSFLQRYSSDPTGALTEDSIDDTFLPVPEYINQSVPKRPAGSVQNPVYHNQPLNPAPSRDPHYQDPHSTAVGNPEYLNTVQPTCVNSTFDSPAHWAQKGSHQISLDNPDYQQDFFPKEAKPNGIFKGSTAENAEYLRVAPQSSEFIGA
EGFR wt., sequence (P00533 25-1210): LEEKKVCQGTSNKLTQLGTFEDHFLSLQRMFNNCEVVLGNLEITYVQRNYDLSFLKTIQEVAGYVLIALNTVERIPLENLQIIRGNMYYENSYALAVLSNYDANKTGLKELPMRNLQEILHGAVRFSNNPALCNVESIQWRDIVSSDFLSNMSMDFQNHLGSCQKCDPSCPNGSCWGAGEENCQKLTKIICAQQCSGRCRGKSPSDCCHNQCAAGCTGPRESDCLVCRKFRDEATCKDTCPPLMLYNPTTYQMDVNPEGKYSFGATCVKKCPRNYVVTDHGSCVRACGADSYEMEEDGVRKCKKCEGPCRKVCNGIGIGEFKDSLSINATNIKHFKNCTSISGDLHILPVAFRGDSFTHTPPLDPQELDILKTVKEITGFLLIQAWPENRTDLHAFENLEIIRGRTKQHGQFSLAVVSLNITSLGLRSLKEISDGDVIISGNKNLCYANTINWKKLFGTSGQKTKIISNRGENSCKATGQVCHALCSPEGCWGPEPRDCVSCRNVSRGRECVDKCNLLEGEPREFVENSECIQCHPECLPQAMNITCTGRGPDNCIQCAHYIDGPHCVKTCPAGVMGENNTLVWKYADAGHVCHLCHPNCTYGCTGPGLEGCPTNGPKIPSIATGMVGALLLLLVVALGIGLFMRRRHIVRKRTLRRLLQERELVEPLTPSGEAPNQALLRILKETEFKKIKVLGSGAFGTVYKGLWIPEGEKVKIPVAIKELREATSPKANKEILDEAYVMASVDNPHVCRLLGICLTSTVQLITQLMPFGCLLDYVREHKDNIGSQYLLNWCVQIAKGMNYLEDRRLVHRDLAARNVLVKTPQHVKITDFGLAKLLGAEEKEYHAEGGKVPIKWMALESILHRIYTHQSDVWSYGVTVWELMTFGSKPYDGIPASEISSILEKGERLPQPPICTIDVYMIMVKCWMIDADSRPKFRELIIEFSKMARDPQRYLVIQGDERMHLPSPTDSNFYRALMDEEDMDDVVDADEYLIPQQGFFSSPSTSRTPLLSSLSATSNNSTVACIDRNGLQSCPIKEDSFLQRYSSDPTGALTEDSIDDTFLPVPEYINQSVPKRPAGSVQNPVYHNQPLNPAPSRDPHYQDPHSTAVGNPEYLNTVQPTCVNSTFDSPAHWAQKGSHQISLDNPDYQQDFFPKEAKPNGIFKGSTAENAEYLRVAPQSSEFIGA

As to `COc1cc(C2CCN(C3CCN(CCO)CC3)CC2)ccc1Nc1ncc(Cl)c(Nc2ccccc2NS(C)(=O)=O)n1` [Example 14, N-(2-((5-chloro-2-((4-(1′-(2-hydroxyethyl)-[1,4′-bipiperidin]-4-yl)-2-methoxyphenyl)amino)pyrimidin-4-yl)amino)phenyl)methanesulfonamide], the pIC50 in assay [1] was 6.30; at EGFR del19/T790M, 7.02; in assay [2] (CellTiter-Glo, 72 hours) it was 6.27; on EGFR del19/T790M/C797S (setting [4]), 7.47; at EGFR del19, 8.22; on EGFR wt., 5.85. Besides, the pIC50 is 6.96 in assay [3] (CellTiter-Glo, 72 hours) and 6.12 in the assay with Ba/F3 EGFR wt. cell line.
Regarding `COc1cc(N2CCN(C3CCNCC3)CC2)ccc1Nc1ncc(Cl)c(Nc2ccccc2NS(C)(=O)=O)n1` [Example 27, N-(2-((5-chloro-2-((2-methoxy-4-(4-(piperidin-4-yl)piperazin-1-yl)phenyl)amino)pyrimidin-4-yl)amino)phenyl)methanesulfonamide], the pIC50 is 5.96 in assay [1]; 7.68 on EGFR del19/T790M; 6.03 in assay [2] (CellTiter-Glo, 72 hours); 9.00 at EGFR del19/T790M/C797S (setting [4]); 9.52 on EGFR del19; 6.55 at EGFR wt.. Besides, the pIC50 in assay [3] (CellTiter-Glo, 72 hours) was under 5.00.
For `COc1cc(C2CCNCC2)ccc1Nc1ncc(Cl)c(Nc2ccccc2NS(C)(=O)=O)n1` [Example 1, N-(2-((5-chloro-2-((2-methoxy-4-(piperidin-4-yl)phenyl)amino)pyrimidin-4-yl)amino)phenyl)methanesulfonamide], the pIC50 in assay [1] is 5.18; in assay [2] (CellTiter-Glo, 72 hours), 5.15; in the assay with Ba/F3 EGFR wt. cell line it was under 4.82.
As to `CNC1CCN(c2ccc(Nc3ncc(Cl)c(Nc4ccccc4NS(C)(=O)=O)n3)c(OC)c2)CC1` [Example 40, N-(2-((5-chloro-2-((2-methoxy-4-(4-(methylamino)piperidin-1-yl)phenyl)amino)pyrimidin-4-yl)amino)phenyl)methanesulfonamide], the pIC50 in assay [3] (CellTiter-Glo, 72 hours) is 6.30.
Take `COc1cc(N2CCC(N)CC2)ccc1Nc1ncc(Cl)c(Nc2ccccc2NS(C)(=O)=O)n1` [Example 38, N-(2-((2-((4-(4-aminopiperidin-1-yl)-2-methoxyphenyl)amino)-5-chloropyrimidin-4-yl)amino)phenyl)methanesulfonamide]: the pIC50 in assay [3] (CellTiter-Glo, 72 hours) was 6.08.
As to `COc1cc(N2CCC(N3CCOCC3)CC2)ccc1Nc1ncc(Cl)c(Nc2ccccc2NS(C)(=O)=O)n1` [Example 34, N-(2-((5-chloro-2-((2-methoxy-4-(4-morpholinopiperidin-1-yl)phenyl)amino)pyrimidin-4-yl)amino)phenyl)methanesulfonamide], the pIC50 was over 9.00 at EGFR del19/T790M/C797S (setting [4]) and 6.80 in assay [3] (CellTiter-Glo, 72 hours).
Take `COc1cc(C2CCNCC2)ccc1Nc1ncc(C(F)(F)F)c(Nc2ccccc2NS(C)(=O)=O)n1` [Example 5, N-(2-((2-((2-methoxy-4-(piperidin-4-yl)phenyl)amino)-5-(trifluoromethyl)pyrimidin-4-yl)amino)phenyl)methanesulfonamide]: the pIC50 is 6.59 in assay [1]; 7.89 at EGFR del19/T790M; 6.24 in assay [2] (CellTiter-Glo, 72 hours); 7.85 on EGFR del19/T790M/C797S (setting [4]); 7.48 on EGFR del19; 5.37 at EGFR wt.. Besides, the pIC50 in assay [3] (CellTiter-Glo, 72 hours) is 6.10; with Ba/F3 EGFR wt. cell line, 5.62.
On to `COc1cc(C2CCN(C3CCNCC3)CC2)ccc1Nc1ncc(Cl)c(Nc2ccccc2NS(C)(=O)=O)n1` [Example 16, N-(2-((2-((4-([1,4′-bipiperidin]-4-yl)-2-methoxyphenyl)amino)-5-chloropyrimidin-4-yl)amino)phenyl)methanesulfonamide], for which the pIC50 in assay [1] is under 5.00; at EGFR del19/T790M it was 6.47; in assay [2] (CellTiter-Glo, 72 hours) it was 5.64; at EGFR del19/T790M/C797S (setting [4]) it was 7.64; on EGFR del19, 7.36; on EGFR wt., 5.27. Also, the pIC50 in assay [3] (CellTiter-Glo, 72 hours) is under 5.00; in the assay with Ba/F3 EGFR wt. cell line, under 5.00.
`COc1cc(N2CCOCC2)ccc1Nc1ncc(Cl)c(Nc2ccccc2NS(C)(=O)=O)n1` [Example 32, N-(2-((5-chloro-2-((2-methoxy-4-morpholinophenyl)amino)pyrimidin-4-yl)amino)phenyl)methanesulfonamide]: the pIC50 in assay [1] was 5.72; on EGFR del19/T790M, 6.80; in assay [2] (CellTiter-Glo, 72 hours), 5.89; on EGFR del19/T790M/C797S (setting [4]), 7.85; at EGFR del19, 8.40; on EGFR wt., 5.89. In addition, the pIC50 was 5.48 in assay [3] (CellTiter-Glo, 72 hours) and 5.10 in the assay with Ba/F3 EGFR wt. cell line.
Take `COc1cc(N2CCC(N3CCCC3)CC2)ccc1Nc1ncc(Cl)c(Nc2ccccc2NS(C)(=O)=O)n1` [Example 35, N-(2-((5-chloro-2-((2-methoxy-4-(4-(pyrrolidin-1-yl)piperidin-1-yl)phenyl)amino)pyrimidin-4-yl)amino)phenyl)methanesulfonamide]: the pIC50 is 8.08 at EGFR del19/T790M; over 9.00 at EGFR del19/T790M/C797S (setting [4]); 8.96 on EGFR del19; 7.57 at EGFR wt.; 7.08 in assay [3] (CellTiter-Glo, 72 hours).
`COc1cc(N2CCC(N3C[C@@H](C)N[C@@H](C)C3)CC2)ccc1Nc1ncc(Cl)c(Nc2ccccc2NS(C)(=O)=O)n1` [Example 33, N-(2-((5-chloro-2-((4-(4-((3R,5S)-3,5-dimethylpiperazin-1-yl)piperidin-1-yl)-2-methoxyphenyl)amino)pyrimidin-4-yl)amino)phenyl)methanesulfonamide]: the pIC50 at EGFR del19/T790M/C797S (setting [4]) was over 9.00; in assay [3] (CellTiter-Glo, 72 hours), 6.92.
Regarding `COc1cc(N2CCC(N(C)C)CC2)ccc1Nc1ncc(Cl)c(Nc2ccccc2NS(N)(=O)=O)n1` [Example 36], in assay [3] (CellTiter-Glo, 72 hours), the pIC50 is 6.03.
Take `COc1cc(N2CCC(N3CCN(CCO)CC3)CC2)ccc1Nc1ncc(Cl)c(Nc2ccccc2NS(C)(=O)=O)n1` [Example 22, N-(2-((5-chloro-2-((4-(4-(4-(2-hydroxyethyl)piperazin-1-yl)piperidin-1-yl)-2-methoxyphenyl)amino)pyrimidin-4-yl)amino)phenyl)methanesulfonamide]: the pIC50 in assay [1] is 6.05; at EGFR del19/T790M, 7.51; in assay [2] (72 h), 6.41; on EGFR del19/T790M/C797S, 9.10; on EGFR del19, 9.40; at EGFR wt. it was 6.59. Also, in assay [3] (72 h), the pIC50 is 5.89.
As for `COc1cc(N2CCNCC2)ccc1Nc1ncc(Cl)c(Nc2ccccc2NS(C)(=O)=O)n1` [Example 23, N-(2-((5-chloro-2-((2-methoxy-4-(piperazin-1-yl)phenyl)amino)pyrimidin-4-yl)amino)phenyl)methanesulfonamide], the pIC50 at EGFR del19/T790M was 7.49; at EGFR del19/T790M/C797S (setting [4]) it was 7.54; on EGFR del19, 7.60; at EGFR wt., 5.57.
Turning to `COc1cc(N2CCNCC2)ccc1Nc1ncc(C(F)(F)F)c(Nc2ccccc2NS(C)(=O)=O)n1` [Example 31, N-(2-((2-((2-methoxy-4-(piperazin-4-yl)phenyl)amino)-5-(trifluoromethyl)pyrimidin-4-yl)amino)phenyl)methanesulfonamide], the pIC50 at EGFR del19/T790M was 7.54; at EGFR del19/T790M/C797S (setting [4]) it was 8.15; at EGFR del19 it was 7.44; at EGFR wt., 6.24.
